Key:
[1] = target: T1, DDX3 (Homo sapiens, UniProt O00571); assay: DDX3 helicase unwinding assay with duplex oligos; format: biochemical; details: 100 μM RK-33, over a period of 80 minutes
T1 construct: made in house; host or cells: pET system (Novagen); E. coli is my own knowledge of the pET system
From the text: FIG. 4 is a chart showing RK-33 inhibits helicase activity of DDX3.
Generating small molecular inhibitors of DDX3 function. As loss of DDX3 function abrogated colony forming abilities along with increased expression in lung carcinoma samples, a search was initiated to identify molecules that could target a functional substrate binding site of DDX3 protein. Initial work generated a fused diimidazodiazepine ring molecule (RK-33) to target RNA helicase. To confirm the functional activity of RK-33 on DDX3, an in vitro assay was carried out to determine the effects of RK-33 on helicase activity. DDX3 protein was synthesized using the pET system from Novagen. Following DDX3 purification, the unwinding assays were performed using duplex oligos, purified DDX3 and RK-33. Quantification was done by evaluating the pixel density of the native duplex oligos and the unwound oligos.

[2] = tested on: H23; assay: MTS assay, lung cancer cell line H23; format: cell-based
Protocol: (§1) FIG. 5 is a plot showing the effect of RK-33 on two lung cancer cell lines. Lung cancer cell lines were incubated with different concentrations of RK-33. At day 3, MTS assays were performed to determine the percentage of metabolically active cells. The experiments were repeated in triplicate. The IC50 values for H23 and A549 are 3.5 and 5 μM respectively.
To study the effects of RK-33 on cell growth and proliferation, lung cancer cell lines (H23 and A549) were used for the initial studies. […] To the best of our knowledge, this is the first data set of evaluating the efficacy of a small molecule inhibitor of DDX3 to kill lung cancer cells.

[3] = tested on: A549; assay: MTS assay, lung cancer cell line A549; format: cell-based
Protocol: as §1, with “respectively. […] Experiments were performed in triplicate. To study the effects of RK-33 on cell growth and proliferation, lung cancer cell lines (H23 and A549) were used for the initial studies. […] To the best of our knowledge, this is the first data set of evaluating the efficacy of a small molecule inhibitor of DDX3 to kill lung cancer cells.” for “respectively.”

[4] = tested on: Cells engineered to express a hypoxia induced red fluorescent protein (tdTomato); assay: Cell death under hypoxic conditions (CoCl2 hypoxia mimetic); format: cell-based; details: CoCl2 24 hours, then RK-33 72 hours
Protocol: Cells engineered to express a hypoxia induced red fluorescent protein (tdTomato) were incubated with CoCl2 (hypoxia mimetic compound) for 24 hours, following which RK-33 was added and incubated for 72 hours. Photomicrographs were taken at 20×. Experiments were repeated twice. Effect of hypoxia on the functional activity of RK-33 to induce cell death. During solid tumor biogenesis, regions of hypoxia develop within the tumor due to inadequate and poorly formed vasculature. […] In addition, some have posited that tumor hypoxia is a major limiting factor of the curability by SABR at lower radiation dose. […] To evaluate efficacy of RK-33 to induce cell death under hypoxic conditions, cells were incubated with CoCl2 (hypoxia mimetic compound) for 24 hours, following which RK-33 was added and incubated for 72 hours.

[5] = tested on: A549 cells; assay: Combination of RK-33 and radiation in A549 cells, Chou-Talalay analysis; format: cell-based; details: 4 and 6 μM RK-33 with 2 and 7 gray of radiation
Protocol: FIG. 8 is a set of bar graphs depicting the effect of radiation and RK-33 on A549 cells. […] Experiments were performed in triplicate.
Clonogenic assays. About 1×10^5 A549 cells were treated with RK-33 (1-6 μM) and to increasing dose of IR (1-20 Gy). After 24 hours, 500 cells from each combination treatment will be plated into a 6-well plate. Following incubation for 1-3 weeks, colonies were fixed in glutaraldehyde (6.0% v/v), stained with crystal violet (0.5% w/v) and counted using a stereomicroscope. Clusters of >50 cells (i.e., six cell doubling times) were scored as colonies. The amount of radiosensitization by RK-33 was determined using the Chou-Talalay equation to determine the combination index (CI). A CI 0.9-1.1 was indicative of additivity while a CI <0.9 indicated synergism. The survival curves, S, were fit to the linear-quadratic model S=exp(−αD-βD2) to determine classical parameters of radiation sensitivity.
Combinatorial effect of RK-33 and radiation in lung cancer cell line, A549. Given the current treatment protocol for lung cancer patients, which includes chemotherapy and radiation, the cell killing abilities of RK-33 was evaluated in combination with radiation in a chemotherapy/radiation resistant lung cancer cell line, A549 (FIG. 7). […] For this experiment, RK-33 below the IC50 value was used to determine if there was any additive or synergistic effect. […]

[6] = Toxicity of RK-33 in SCID mice, pathological examination after necropsy; format: in vivo
[7] = Biodistribution of RK-33 in mice by LC/MS/MS; format: in vivo; details: I.P. single dose of 20 mg/kg; 30 minutes, 60 minutes and 24 hours
From the text: FIG. 9 is a set of curves illustrating the biodistribution of RK-33 in mice at different time intervals using an LC/MS/MS method. A total of five mice per time point were used for this study.
Analysis of the toxicity of RK-33 in SCID mice. […] Subsequently, we carried out pharmacokinetics in multiple tissue compartments. For this a LC/MS/MS method was developed for determination of RK-33 in mouse plasma (FIG. 9-inset). Sample preparation involved acetonitrile precipitation and separation of RK-33 and the internal standard, temazepam, was achieved on a Waters Xterra column. […] The animals were injected I.P. (single dose of 20 mg/kg with five animals per arm) and the tissue harvested at different time intervals (30 minutes, 60 minutes and 24 hours) and analyzed.

[8] = tested on: lung tumors in CRT mice; assay: RK-33 and radiation in CRT autochthonous lung tumor mice, microCT tumor volume; format: in vivo
From the text: FIG. 11 is a bar graph showing the chemosensitization of RK-33 with radiation to reduce lung tumors in CRT mice. Following RK-33 and radiation treatment, the animals were imaged using microCT (data not shown). The bar graph depicts the reduction of lung tumor volume in n=8 animals per group. The tumor volumes were quantified from the CBCT data set using the image and volume contouring utility of the Pinnacle3 Radiation Therapy Planning software v.8.1y (Philips Inc., Madison, Wis.) used in the clinic for human patients. Each CBCT data set contains full 3D volumetric data for the tumor burden estimation.
Generating the CRT mice and drug treatment. As shown in the results, the functional utility of CRT mice was validated. CRT mice are generated from combinations of bi-transgenic mice; e.g., CT X CR. CRT mice were activated shortly after weaning, four-five weeks old, by doxycycline administered in their drinking water (up to 2 mg/ml) in a total volume of 350 ml to simultaneously activate both Twist1 and KrasG12D transgenes. Fresh doxycycline containing water was administered weekly. Ten weeks post transgene induction, the mice were imaged by microCT to determine tumor load. Induction of the transgenes and imaging the tumor load by microCT were continuous (weekly) till the end of the experiment. Following induction and establishment of lung tumors, RK-33 (1 mM equivalent to 40 mg/Kg) was injected intraperitoneally in combination with radiation at schedules described in the table below. The number of animals used in each group was 25.
MicroCT procedures. Presently a small animal radiation research platform for radiation treatment of animals was developed. […]
Thoracic image-guided irradiation. […] Fifteen Gy radiation calculated at the isocenter was delivered using a single posterior field. […]
Endpoints for in vivo experiments. […] Animals following treatment are monitored daily by animal care staff and 3×/week by investigators for signs of mortality and morbidity. […]

T1 sequence (O00571 whole entry): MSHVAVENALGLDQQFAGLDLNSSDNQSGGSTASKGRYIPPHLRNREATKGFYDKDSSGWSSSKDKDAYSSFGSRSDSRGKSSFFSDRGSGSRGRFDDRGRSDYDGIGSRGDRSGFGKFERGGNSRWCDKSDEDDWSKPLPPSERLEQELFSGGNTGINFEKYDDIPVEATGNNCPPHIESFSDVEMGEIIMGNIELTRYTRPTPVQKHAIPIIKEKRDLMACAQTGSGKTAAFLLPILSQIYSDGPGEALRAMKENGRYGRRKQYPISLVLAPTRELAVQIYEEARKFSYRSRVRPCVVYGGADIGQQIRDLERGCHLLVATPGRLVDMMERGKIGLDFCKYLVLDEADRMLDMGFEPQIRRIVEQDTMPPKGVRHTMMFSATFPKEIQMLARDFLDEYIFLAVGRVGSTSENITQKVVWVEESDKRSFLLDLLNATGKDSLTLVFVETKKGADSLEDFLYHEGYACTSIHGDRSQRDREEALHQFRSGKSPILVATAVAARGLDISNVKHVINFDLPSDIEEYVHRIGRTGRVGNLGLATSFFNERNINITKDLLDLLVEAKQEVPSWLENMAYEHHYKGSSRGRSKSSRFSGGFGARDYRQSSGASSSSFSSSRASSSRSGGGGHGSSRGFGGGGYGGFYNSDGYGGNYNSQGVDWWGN

Compound	reduction of unwinding of the duplex oligos [1]	effect on cell growth and proliferation ([2]; H23, 8 μM RK-33)	IC50 ([2]; Homo sapiens, NCI-H23, 72 h, H23, MTS at day 3) [µM]	sensitivity of A549 cells in MTS assay [3]	effect on cell growth and proliferation ([3]; A549, 8 μM RK-33)	IC50 ([3]; Homo sapiens, 72 h, A549, MTS at day 3) [µM]	activity to induce cell death under hypoxic conditions [4]	combination effect with radiation on cell death (Chou-Talalay) [5]	pathological examination of all tissues following necropsy [6]	brain exposures [7]	target tissue concentrations [7]	tumor volume reduction, RK-33 combined with conventional fractionated radiation ([8]; 3 Gy x10)	tumor response, single agent ([8]; RK-33 1 mM i.p. 3 times a week alone, microCT)	tumor response, RK-33 combined with SABR ([8]; RK-33 1 mM i.p. 3 times a week, 1 week before and 1 week after 15 Gy whole thorax SABR, microCT and H&E)
COc1ccc(Cn2c3ncnc4c(ncn4Cc4ccc(OC)cc4)c-3nc2=O)cc1 [RK-33]	at least 60%	efficiently ablate	3.5	sensitive	efficiently ablate	5	retain its activity both under normoxic and hypoxic conditions	significant synergistic effect	no tissue damage	well managed	well above effective killing concentrations	no synergy	stasis or perhaps slight regression	dramatic tumor regression
N.N.O=C([O-])C1(C(=O)[O-])CCC1.[Pt+2] [carboplatin, reference compound]				resistant										

Reference: patent publication US9114158B2, “Compounds and methods of use in ablative radiotherapy” (The Johns Hopkins University, priority 2011, dated 2015)
